Data on 1 compound can be found in patent publication US20110135738A1, “SINGLE DOSAGE PHARMACEUTICAL FORMULATION COMPRISING EPROSARTAN MESYLATE” (LEK Pharmaceutical S. D. D., priority 2008, published 2011).

A short description of data set [1]: Flowability of powder / final mixture. The data set is classed as physicochemical. Conditions: drug per se.
For data set [2] the following is noted: at RH over 60%; cited from earlier work.
For data set [3] the following is noted: cited from earlier work.
Data set [4] is described as follows: X-ray diffraction analysis of eprosartan mesylate form / physical stability. The note with it: ambient temperature and humidity. The data set is classed as physicochemical. The procedure: During the dry granulation processes using different excipients from the list above, physical stability of the eprosartan mesylate anhydrate was investigated. […] The final tablet form and placebo powder were analyzed by X-ray diffraction (XRD) pattern to confirm presence of anhydrous form of eprosartan mesylate.
Diffractograms were collected on X′Pert PRO MPD diffractometer using CuKα radiation.
Data were recorded from 2 do 40° 2θ; in steps of 0.033° 2θ; with the integration times 50 s (routine testing) and from 4 do 20° 2θ; in steps of 0.033° 2θ; with the integration times 2000 s (to achieve lower LOD). The range for measurements with longer integration times was chosen according to the known diffractograms of eprosartan mesylate crystalline forms, which all have characteristic peaks in the carefully measured range between 4 and 20° 2theta.

For data set [5] the following is noted: oral; cited from earlier work.

For `CCCCc1ncc(/C=C(\Cc2cccs2)C(=O)O)n1Cc1ccc(C(=O)O)cc1.CS(=O)(=O)O` [Eprosartan mesylate, (E)-α-[2-n-butyl-1-[(4-carboxyphenyl)methyl]-1H-imidazol-5-yl]methylene-2-thiophenepropionic acid monomethanesulfonate], in data set [1], the “flowability of eprosartan mesylate” value was “below 0.15 g/sec”. The “interconversion of anhydrous form” value in data set [2] was “interconverts to eprosartan mesylate mono- and later to dihydrate”. In addition, the “permeability across the intestinal epithelium” value in data set [3] is reported as “low permeability”. Besides, the “physical and chemical stability of anhydrous form” value in data set [4] is “physically and chemically stable”. Further, the bioavailability (as a rule, the share of a dose that reaches the circulation, judged against a reference dose that is usually intravenous) in data set [5] is on record as 13%.
